Assays:
Mouse Plasma = test: brain and plasma exposure of V1a-R antagonist lead, late-stage follow-up, in vivo study for V1a-R antagonist project, LC-MS/MS, mouse, powder samples (AID 743031); conditions: C57Bl6 mouse, 10 mg/kg PO, LC-MS/MS at 60 min, 60 min after 10 mg/kg PO
Mouse Brain = test: as above; conditions: C57Bl6 mouse, 10 mg/kg PO, LC-MS/MS at 60 min, 60 min after 10 mg/kg PO
[1] = brain to plasma ratio, stronger effect = higher value

`O=C(C1CCN(c2ccc(Cl)cn2)CC1)N(CC1CC1)c1ccc(Cl)cc1` was tested, and the compound concentration (Mouse Plasma) was 2.56 µM, the brain/plasma ratio (Mouse Plasma; [1]) was 1.28 and the compound concentration (Mouse Brain) was 3.27 µM. For the same compound, the brain/plasma ratio (Mouse Brain; [1]) was 1.28.

— PubChem BioAssay AID743031 (The Scripps Research Institute Molecular Screening Center, 2013)
